The test system of data set [1] is Respiratory syncytial virus recombinant with luciferase (RSV-Luc5). In words: NHBE RSV-Luc5 384-well assay (EC50 RSVFLUC NHBE-384 v2), Example W. Type of data set: cell-based. The conditions noted are these: human respiratory syncytial virus, 72 h, read-out: EC50 RSV FLUC NHBE 384 V2 (per Ex. W). An excerpt:
Example W: NHBE RSV-Luc5 384-Well Assay (EC50 RSVFLUC NHBE-384 v2)
Normal Human Bronchial Epithelial (NHBE) cells were purchased from Lonza (Walkersville, MD Cat #CC2540) and maintained in BEGM Bronchial Epithelial Cell Growth Medium BulletKit (Lonza CC-3170).
Cells were thawed, expanded, and were used for experiments at passage 2. Respiratory syncytial virus recombinant with luciferase (RSV-Luc5) (≥1×10^7 Infectious Units/mL (IU/mL) determined by TCID50) was purchased from Microbiologics (Saint Cloud, MN). Viral replication was determined in NHBE cells in the following manner.
Compounds are prepared in 100% DMSO in 384-well polypropylene plates (Greiner, Monroe, NC, Cat #784201) with 8 compounds per plate in grouped replicates of 4 at 10 serially diluted concentrations (1:3). The serially diluted compounds were transferred to low dead volume Echo plates (Labcyte, Sunnyvale, CA, Cat #LP-0200).
The test compounds were spotted to 384-well assay plates (Greiner, Monroe, NC, Cat #781091) at 200 nL per well using an Echo acoustic dispenser (Labcyte, Sunnyvale, CA). NHBE cells were harvested and suspended in BEGM Bronchial Epithelial Cell Growth Medium BulletKit and seeded to the pre-spotted assay plates at 5,000 cells per well in 30 μL. RSV-Luc5 virus was diluted in BEGM Bronchial Epithelial Cell Growth Medium BulletKit at 500,000 Infectious Units (IU) per mL and 10 μL per well was added to the assay plates containing cells and compounds, for an MOI of 1. The assay plates were incubated for 3 days at 37° C. and 5% CO2. At the end of incubation, One-Glo reagent (Promega, Madison, WI, Cat #E6120) was prepared. The assay plates and One-Glo reagent were equilibrated to room temperature for at least 15 minutes. 40 μL per well of One-Glo reagent was added and the plates were incubated at room temperature for 15 minutes before reading the luminescence signal on an EnVision multimode plate reader (Perkin Elmer, Waltham, MA). Remdesivir was used as positive control and DMSO was used as negative control. Values were normalized to the positive and negative controls (as 0% and 100% replication, respectively) and data was fitted using non-linear regression analysis by Gilead's dose response tool. The EC50 value for each compound was defined as the concentration reducing the viral replication by 50%.

The nature of data set [2]: GI S9 stability, rat, Example Y. Type of data set: in vitro ADME. The conditions noted are these: pooled intestinal S9 fractions; rat intestinal S9, 1.0 mg/mL protein, 2 μM compound, pH 7.4; read-out: GIS9 Rat T½ (per Ex. Y). On the procedure: (§1) Example Y: GI S9 Stability Data
(§2) Stock solutions of test compounds in dimethyl sulfoxide (DMSO) having a final concentration of 10 mM were prepared and used in all experiments. Sekisui XenoTech (Kansas City, KS) provided pooled intestinal S9 fractions. All other chemicals were purchased from Sigma-Aldrich (St. Louis, MO) or VWR (West Chester, PA). Internal Standard/Quench (IS/Q) used to stop reactions was 100 nM labetalol in (by volume) methanol (10%) and acetonitrile (90%).
(§3) Stability in Intestinal S9 Fractions: Duplicate aliquots of test compound or positive control substrate were added to S9 stock diluted with phosphate buffered saline (137 mM NaCl, 2.7 mM KCl, 10 mM phosphate buffer), pH 7.4, to obtain a protein concentration of 1.0 mg/mL. The metabolic reactions were initiated by the addition of the substrates to the S9 reaction mixture to a final concentration of 2 μM. At 0, 10, 20, 30, 60 and 120 min, 25 μL aliquots of the reaction mixture were transferred to plates containing 225 μl of IS/Q solution. After quenching, the plates were centrifuged at 3000×g for 30 minutes. 150 μL aliquots of each supernatant were dried down then reconstituted with 300 μL water. Aliquots (10 μL) of the prepared samples were analyzed on a Thermo Q-Exactive mass spectrometer as described below.
(§4) Liquid Chromatography—Mass Spectrometry: Quantification of test compounds and control substrate was performed by analyte/internal standard peak area ratio (PAR) values measured on a Thermo Q-Exactive mass spectrometer coupled to a Dionex UltiMate 3000 HPLC with a Leap Technologies HTC PAL autosampler. The column used for analysis was a Waters Acquity BEH C18 (1.7 μm particle size, 2.1×50 mm). Mobile phase A consisted of 0.1% (v/v) formic acid in water. Mobile phase B consisted of 0.1% (v/v) formic acid in acetonitrile. Elution of analytes was achieved by a series of linear gradients varying the proportions of A and B. The mass spectrometer was calibrated on a weekly basis and mass tolerance of 5 ppm was used.
(§5) Metabolic stabilities in S9 fractions were determined by measuring the rates of disappearance of test compound and positive control substrate.
(§6) Data (% of substrate remaining) were plotted on a semi-log scale and fitted using an exponential decline model:
(§7) Ct=C0×e^−ln2/T1/2×t • Where Ct—% of substrate remaining at time=t; C0—% of substrate remaining at time=0; t—time; T1/2—half-life. • The Half-life (T1/2) is determined by the following equation: […]
(§8) Assuming a first-order reaction, the slope (k) is extrapolated from the aforementioned plotted data.

A short description of data set [3]: GI S9 stability, human, Example Y. It counts as in vitro ADME. The conditions noted are these: pooled intestinal S9 fractions; human intestinal S9, 1.0 mg/mL protein, 2 μM compound, pH 7.4; read-out: GIS9 Human T½ (per Ex. Y). On the procedure:
as §1, §2, §3, §4, §5, §6, §7, §8

Data on 14 compounds can be found in patent US20230382940A1, “ANTIVIRAL COMPOUNDS AND METHODS OF MAKING AND USING THE SAME” (Gilead Sciences, Inc., priority 2022, published 2023).

Structures are written as SMILES.

As for `CC(C)COC(=O)Nc1ncnn2c([C@@H]3O[C@](C#N)(CO)[C@@H](O)[C@H]3O)ccc12` [Compound 16, Isobutyl (7-((2S,3R,4S,5R)-5-cyano-3,4-dihydroxy-5-(hydroxymethyl)tetrahydrofuran-2-yl)pyrrolo[2,1-f][1,2,4]triazin-4-yl)carbamate], the 50% effective concentration (EC50) – broadly, the concentration needed to bring the measured effect to its halfway point – in data set [1] is 50 µM. In addition, the half-life at 2 μM in data set [2] and in data set [3] was 789 min in each case.
As to `N#C[C@]1(COC(=O)OC2CCC2)O[C@@H](c2ccc3c(N)ncnn23)[C@H](O)[C@@H]1O` [Compound 17, ((2R,3S,4R,5S)-5-(4-aminopyrrolo[2,1-f][1,2,4]triazin-7-yl)-2-cyano-3,4-dihydroxytetrahydrofuran-2-yl)methyl cyclobutyl carbonate], the EC50 in data set [1] worked out at 5.96 µM. Further, the results for the half-life at 2 μM in data set [2] and in data set [3] were 7 min and 29 min, respectively.
Take `CCCCCCOC(=O)OC[C@@]1(C#N)O[C@@H](c2ccc3c(N)ncnn23)[C@H](O)[C@@H]1O` [Compound 19, ((2R,3S,4R,5S)-5-(4-aminopyrrolo[2,1-f][1,2,4]triazin-7-yl)-2-cyano-3,4-dihydroxytetrahydrofuran-2-yl)methyl hexyl carbonate]: in data set [1], the EC50 was found to be 7.03 µM. For the same compound, the half-life at 2 μM in data set [2] was found to be 2 min; in data set [3] it was 11 min.
On to `CCCCCOC(=O)OC[C@@]1(C#N)O[C@@H](c2ccc3c(N)ncnn23)[C@H](O)[C@@H]1O` [Compound 20, ((2R,3S,4R,5S)-5-(4-aminopyrrolo[2,1-f][1,2,4]triazin-7-yl)-2-cyano-3,4-dihydroxytetrahydrofuran-2-yl)methyl pentyl carbonate], for which the EC50 in data set [1] came to 7.51 µM. Moreover, the results for the half-life at 2 μM in data set [2] and in data set [3] were 3 min and 16 min, respectively.
The like results for `N#C[C@]1(COC(=O)OC2CCCCC2)O[C@@H](c2ccc3c(N)ncnn23)[C@H](O)[C@@H]1O` [Compound 21, ((2R,3S,4R,5S)-5-(4-aminopyrrolo[2,1-f][1,2,4]triazin-7-yl)-2-cyano-3,4-dihydroxytetrahydrofuran-2-yl)methyl cyclohexyl carbonate] were, in that order, 7 µM, 8 min and 44 min.
Turning to `CCOC(=O)OC[C@@]1(C#N)O[C@@H](c2ccc3c(N)ncnn23)[C@H](O)[C@@H]1O` [Compound 22, ((2R,3S,4R,5S)-5-(4-aminopyrrolo[2,1-f][1,2,4]triazin-7-yl)-2-cyano-3,4-dihydroxytetrahydrofuran-2-yl)methyl ethyl carbonate], the half-maximal effective concentration (EC50) in data set [1] came to 6.62 µM. For the same compound, the half-life at 2 μM in data set [2] worked out at 14 min; in data set [3] it was 55 min.
The like results for `N#C[C@]1(COC(=O)OC2CC2)O[C@@H](c2ccc3c(N)ncnn23)[C@H](O)[C@@H]1O` [Compound 23, ((2R,3S,4R,5S)-5-(4-aminopyrrolo[2,1-f][1,2,4]triazin-7-yl)-2-cyano-3,4-dihydroxytetrahydrofuran-2-yl)methyl cyclopropyl carbonate] were, in that order, 7.79 µM, 9 min and 19 min.
Turning to `N#C[C@]1(COC(=O)O[C@@H]2CCOC2)O[C@@H](c2ccc3c(N)ncnn23)[C@H](O)[C@@H]1O` [Compound 24, ((2R,3S,4R,5S)-5-(4-aminopyrrolo[2,1-f][1,2,4]triazin-7-yl)-2-cyano-3,4-dihydroxytetrahydrofuran-2-yl)methyl ((R)-tetrahydrofuran-3-yl) carbonate], the EC50 in data set [1] is 7.33 µM. For the same compound, the half-life at 2 μM was 47 min in data set [2] and 178 min in data set [3].
For `CC[C@H](C)COC(=O)OC[C@@]1(C#N)O[C@@H](c2ccc3c(N)ncnn23)[C@H](O)[C@@H]1O` [Compound 28, ((2R,3S,4R,5S)-5-(4-aminopyrrolo[2,1-f][1,2,4]triazin-7-yl)-2-cyano-3,4-dihydroxytetrahydrofuran-2-yl)methyl ((S)-2-methylbutyl) carbonate], the concentration for a half-maximal effect (EC50) in data set [1] was determined as 9.4 µM. Besides, the half-life at 2 μM was determined as 4 min in data set [2] and 18 min in data set [3].
The like results for `N#C[C@]1(COC(=O)OCc2ccccc2)O[C@@H](c2ccc3c(N)ncnn23)[C@H](O)[C@@H]1O` [Compound 29, ((2R,3S,4R,5S)-5-(4-aminopyrrolo[2,1-f][1,2,4]triazin-7-yl)-2-cyano-3,4-dihydroxytetrahydrofuran-2-yl)methyl benzyl carbonate] were, in that order, 10.9 µM, 3 min and 15 min.
For `N#C[C@]1(COC(=O)OCC2CCCC2)O[C@@H](c2ccc3c(N)ncnn23)[C@H](O)[C@@H]1O` [Compound 30, ((2R,3S,4R,5S)-5-(4-aminopyrrolo[2,1-f][1,2,4]triazin-7-yl)-2-cyano-3,4-dihydroxytetrahydrofuran-2-yl)methyl (cyclopentylmethyl) carbonate] the same measures were 7.54 µM, 3 min and 15 min.
Take `CCC(CC)COC(=O)OC[C@@]1(C#N)O[C@@H](c2ccc3c(N)ncnn23)[C@H](O)[C@@H]1O` [Compound 31, ((2R,3S,4R,5S)-5-(4-aminopyrrolo[2,1-f][1,2,4]triazin-7-yl)-2-cyano-3,4-dihydroxytetrahydrofuran-2-yl)methyl (2-ethylbutyl) carbonate]: in data set [1], the EC50 was 8.65 µM. The half-life at 2 μM in data set [2] turned out to be 3 min; in data set [3], 18 min.
The like results for `N#C[C@]1(COC(=O)OCC2CC2)O[C@@H](c2ccc3c(N)ncnn23)[C@H](O)[C@@H]1O` [Compound 32, ((2R,3S,4R,5S)-5-(4-aminopyrrolo[2,1-f][1,2,4]triazin-7-yl)-2-cyano-3,4-dihydroxytetrahydrofuran-2-yl)methyl (cyclopropylmethyl) carbonate] were, in that order, 7.12 µM, 8 min and 33 min.
The like results for `N#C[C@]1(COC(=O)O[C@H]2CCOC2)O[C@@H](c2ccc3c(N)ncnn23)[C@H](O)[C@@H]1O` [Compound 33, ((2R,3S,4R,5S)-5-(4-aminopyrrolo[2,1-f][1,2,4]triazin-7-yl)-2-cyano-3,4-dihydroxytetrahydrofuran-2-yl)methyl ((S)-tetrahydrofuran-3-yl) carbonate] were, in that order, 8.01 µM, 58 min and 250 min.
